Laboratory results: publication PMC12467382, “Synthesis and Bioevaluation of Chalcones as Broad-Spectrum Antiviral Compounds Against Single-Stranded RNA Viruses” (Biomolecules, 2025)

Experiments:
Hs27 cells = test: 48 h MTS growth inhibition assay in Hs27 cells; type: cell-based, human; settings: for EC50: Homo sapiens, HS27, 48 h, read-out: Hs27 48 h EC50; for Hs27 48 h EC10: highest concentration giving 90% relative new cell growth after 48 h, 0.5% DMSO
Protocol: A cell growth assay using the MTS reagent was conducted to assess the general toxicity of each chalcone compound. […] Experiments were conducted in triplicate. In a typical experiment, there are two plates. The first is the control plate, which allows one to assess the starting cell population on the day of drug addition (Day 0). The second plate is the test plate where cells are plated and tested with different drug concentrations on Day 0. For example, either CHO cells or Hs27 cells were plated in a 200 µL volume at 1000 cells/well on both the control and test plates and incubated overnight to allow the cells to adhere. On Day 0, 1 μL of PBS was added to the control plate wells so that their total volume was 201 μL. MTS reagent (Promega Cell Titer 96 Aqueous non-radioactive cell proliferation reagent, Promega, Madison, WI, USA) was added (20 μL) to each well on the control plate, and that plate was incubated for 4 h in a 5% CO2 atmosphere at 37 °C and then read on the plate reader.
(§1) On Day 0, 1 μL of a 200× stock solution of each chalcone was added to the respected well on the test plate, and each condition was tested in triplicate. Drug solutions were prepared in advance in 100% DMSO and dosed so that the final DMSO concentration was 0.5%. For example, 1 μL of chalcone solution was added to the cells plated in each well in 200 μL of media. Of note, the respective chalcone addition occurred after an initial overnight incubation of each cell line in each well to reach Day 0 (the drugging day). After the chalcone was added, the cells were incubated in 5% CO2 for 48 h at 37 °C. After 48 h, the MTS reagent (Promega, Madison, WI, USA) was added (20 μL), and the test plates were incubated for an additional 4 h, and then, absorbance at 490 nm was measured on a BioTek Synergy MX plate reader. […] IC50 values were determined from the corresponding plot of relative absorbance at 490 nm vs. the drug concentration.
(§2) For highly colored materials like the chalcones, it is important to consider the contribution of the compound’s own absorbance to the MTS assay. To correct for the absorbance contribution of the chalcone itself, we measured each chalcone’s absorbance (Chalcone Abs) at 490 nm at the respective concentration (e.g., 10 µM) and subtracted the absorbance of the media background (blank Abs). This net value was then subtracted out of the Day 2 absorbance value to provide the % relative growth via the following equation:(1) % Relative Growth = (Day 2 Abs−Day 2 blank Abs)−Chalcone Abs−blank Abs−(Day 0 Abs−Day 0 blank Abs)/(Day 2 Control Abs −Day 2 blank Abs)−(Day 0 Abs−Day 0 blank Abs) ×100%
With the chalcones in hand, we then evaluated their growth-inhibition properties in Chinese hamster ovary (CHO-K1) cells and human Hs27 fibroblast cells.

CHO-K1 cells = test: cells; type: cell-based, Chinese hamster; settings: for CHOK1 48 h EC10: Chinese hamster; for EC50: Cricetulus griseus, CHO-K1, 48 h, read-out: CHOK1 48 h EC50
Protocol: A cell growth assay using the MTS reagent was conducted to assess the general toxicity of each chalcone compound. Briefly, cell growth was assayed in sterile 96-well microtiter plates (Costar 3599, Corning Inc., Corning, NY, USA) in the presence of each chalcone. Experiments were conducted in triplicate. In a typical experiment, there are two plates. The first is the control plate, which allows one to assess the starting cell population on the day of drug addition (Day 0). The second plate is the test plate where cells are plated and tested with different drug concentrations on Day 0. For example, either CHO cells or Hs27 cells were plated in a 200 µL volume at 1000 cells/well on both the control and test plates and incubated overnight to allow the cells to adhere. On Day 0, 1 μL of PBS was added to the control plate wells so that their total volume was 201 μL. MTS reagent (Promega Cell Titer 96 Aqueous non-radioactive cell proliferation reagent, Promega, Madison, WI, USA) was added (20 μL) to each well on the control plate, and that plate was incubated for 4 h in a 5% CO2 atmosphere at 37 °C and then read on the plate reader.
as §1, §2
With the chalcones in hand, we then evaluated their growth-inhibition properties in Chinese hamster ovary (CHO-K1) cells and human Hs27 fibroblast cells. […] The results are shown in Table 2 along with a SAR summary of our findings in the host Hs27 cells.

PIV5-GFP = PIV5-GFP viral GFP expression in Hs27 cells by flow cytometry; type: cell-based, parainfluenza virus 5; settings: 10 µM; Hs27 cells infected with PIV5-GFP
Protocol: Parainfluenza virus 5 (PIV5) expressing green fluorescence protein (GFP) was derived from cDNA, grown at 37 °C in Madin–Darby bovine kidney (MDBK) cells and titered on CV-1 (African green monkey kidney) cells with a fibroblast morphology as previously described. MDBK and CV-1 cells were the kind gift of Dr. Robert Lamb (Northwestern University). Cells were infected with virus diluted in DMEM supplemented with 10% bovine serum albumin (BSA) for 1 h or mock infected with media alone. Following incubation, cells were washed with phosphate-buffered saline (PBS) and cultured in DMEM supplemented with 2% heat-inactivated (HI) FBS.
Chalcone treatments were performed in DMEM supplemented with 10% HI FBS at the indicated concentrations and for indicated periods of time. Chalcone stocks were reconstituted in 100% dimethyl sulfoxide (DMSO) at a concentration of 10 mM and were serially diluted to working concentrations in DMSO. DMSO control treatments to test the effect of the vehicle were performed at volumes corresponding to the volume of chalcone added during each experiment (i.e., 1 µL chalcone DMSO solution/1 mL DMEM [10 µM] utilized alongside the DMSO control of 1 µL/1 mL DMEM). For cytotoxicity assays, untreated controls were subtracted from DMSO and chalcone sample values to account for the background signal.
For cytotoxicity assays, cells were stained with propidium iodide (PI) at a dilution of 1:100. Cell viability was determined via flow cytometry using the CytoFLEX (Beckman Coulter, Brea, CA, USA). CytExpert software (Beckman Coulter, version 2.4) was used to analyze independent events. PIV5 infection was monitored using flow cytometry via the FITC channel by analyzing GFP expression of individual cells. ZIKV infection was monitored utilizing Flavivirus group antigen–antibody (D1-4G2-4-15; Novus Biologicals, Littleton, CO, USA) staining for the ZIKV envelope protein. Cells were fixed and permeabilized using eBioscience Intracellular Fixation and Permeabilization Buffer (Invitrogen, Thermo Fisher Scientific, MA, USA) according to the manufacturer’s instructions. Secondary staining was performed using an anti-Alexa Fluor 488 (AF488) antibody (Invitrogen, Thermo Fisher Scientific, MA, USA). OC43 infection was monitored utilizing a primary antibody targeted toward the OC43 nucleocapsid protein (NP, MAB9013, Sigma-Aldrich, St. Louis, MO, USA). Secondary staining was performed using an AF488 antibody. Cells were fixed and permeabilized as previously described. LACV infection was monitored utilizing an anti-LACV Gc 807.31ab antibody kindly provided by Andrew Pekosv. Secondary staining was performed using an AF488 antibody. Cells were fixed and permeabilized as previously described.
To measure the effect of chalcone treatment on PIV5 virus growth, Hs27 cells were infected with PIV5-GFP. This engineered negative sense single-stranded RNA virus expresses GFP, which serves as a genome-encoded protein readout. After entering a cell, PIV5 must first undergo primary transcription to convert its genome into mRNA. As genome replication begins, nascent genomes then become templates for further conversion to mRNA and viral gene expression becomes amplified in a process called secondary transcription. For viral proteins to be detectable in cell culture, this amplification must first take place, making the expression of GFP a direct indicator of whether secondary transcription has successfully occurred. […] As shown in the representative data in Figure 4A, ~82% of DMSO-treated PIV5-GFP infected cells were positive for GFP expression. This was reduced to ~2% GFP-positive cells after treatment with 8o. […] These chalcones were therefore selected for further screening for cytotoxicity.
The GFP IC50 was defined as the concentration of chalcone required to inhibit the GFP expression (as measured via flow cytometry) by 50% when compared to DMSO-treated cells. […]

mTOR signaling [1] = test system: mTOR signaling; parameters: method as in PMID 28442256; settings: SGR2 and Huh7.5 cell lines; cited from earlier work
mTOR signaling [2] = test: Western blot of prps6 and rps6 as readouts of mTOR signaling in PANC-1 cells; type: cell-based; settings: 72 h, chalcones 10 µM, rapamycin 10 nM
Protocol: PANC-1 cells were cultured in 6-well dishes and were lysed using modified radioimmunoprecipitation assay (RIPA) buffer (20 mM HEPES, pH 7.0, 150 mM NaCl, 1 mM EDTA, 1% NP-40, 1% deoxycholate, and 0.1% sodium dodecyl sulfate [SDS]) containing a complete protease inhibitor cocktail (Roche, Mannheim, Germany) and PhosSTOP phosphatase inhibitor cocktail (Roche, Mannheim, Germany). Protein concentrations were determined using the bicinchoninic acid (BCA) protein assay kit (Pierce, Rockford, IL, USA) according to manufacturer’s instructions. Cell lysates with 25 µg of protein were resolved on 12% sodium dodecyl sulfate-polyacrylamide gel electrophoresis (SDS-PAGE) gels and electro-transferred onto polyvinylidene difluoride (PVDF) membranes (Trans-Blot Turbo Transfer System, BioRad, Hercules, CA, USA). The samples were probed with rabbit monoclonal antibodies for the P-rps6 (1:1000) protein (Cell Signaling, Danvers, MA, USA) and mouse monoclonal antibodies for rps6 (1:1000) (Cell Signaling) and β-actin (1:5000) (Abcam, Waltham, MA, USA) proteins. Blots were visualized using anti-rabbit or anti-mouse horseradish peroxidase (HRP)-conjugated antibodies (Cell Signaling) and chemiluminescence reagent (Thermo Fisher Scientific, Waltham, MA, USA).
PANC-1 cells were chosen for this study as they are highly dependent on mTOR for their growth. PANC-1 cells were cultured and treated with the positive control rapamycin (10 nM) and chalcones NM5, 8a, 8o, 8s, 8v, and 8w (10 μM) for 72 h. Rapamycin and the chalcones were dissolved in 100% DMSO and dosed so that the final DMSO concentration was 0.1%. Cell lysates were collected and analyzed to determine the relative protein expression levels of rps6, prps6, and β-actin as a loading control (see Figure 12).

| SMILES | EC50 (Hs27 cells) [µM] | Hs27 48 h EC10 (Hs27 cells) [µM] | CHOK1 48 h EC10 (CHO-K1 cells) [µM] | EC50 (CHO-K1 cells) [µM] | % GFP relative to DMSO treated (10 µM) (PIV5-GFP) [%] | Effect on mTOR signaling (mTOR signaling [1]) | prps6 expression relative to DMSO control (mTOR signaling [2]) | total rps6 protein expression relative to DMSO control (mTOR signaling [2]) |
| --- | --- | --- | --- | --- | --- | --- | --- | --- |
| CCOc1ccc(Br)cc1/C=C/C(=O)c1c(O)cccc1OCCc1ccccc1 [Chalcone 8t, (2E)-3-(5-Bromo-2-Ethoxy-Phenyl)-1-[2-Hydroxy-6-Phenethyloxy]-Propenone] | 10.3 ± 0.5 | 6.4 ± 0.5 | 1.1 ± 0.1 | 2.6 ± 0.2 | 84.9 | – | – | – |
| COc1ccc(/C=C/C(=O)c2cc(Br)cc(Br)c2O)cc1OC [NM5, (2E)-1-(3,5-Dibromo-2-hydroxyphenyl)-3-(3,4-dimethoxyphenyl)-2-propen-1-one, reference compound] | 1.8 ± 0.1 | 1.0 ± 0.1 | 1.1 ± 0.1 | 6.2 ± 0.3 | – | inhibit mTOR signaling | stimulate this prps6 mTOR readout | – |
| CO[C@H]1C[C@@H]2CC[C@@H](C)[C@@](O)(O2)C(=O)C(=O)N2CCCC[C@H]2C(=O)O[C@H]([C@H](C)C[C@@H]2CC[C@@H](O)[C@H](OC)C2)CC(=O)[C@H](C)/C=C(\C)[C@@H](O)[C@@H](OC)C(=O)[C@H](C)C[C@H](C)/C=C/C=C/C=C/1C [rapamycin, reference compound] | – | – | – | – | – | – | loss of prps6 expression | no significant difference |
| CCOc1ccc(Br)cc1/C=C/C(=O)c1c(O)cccc1OCCC(C)C [Chalcone 8r, (2E)-3-(5-Bromo-2-Ethoxy-Phenyl)-1-[2-Hydroxy-6-(3-Methyl-Butoxy)-Phenyl]-Propenone] | 16.9 ± 2 | 9.4 ± 0.7 | 4.7 ± 0.4 | 6.8 ± 0.7 | 108.7 | – | – | – |
| CCOc1ccc(Br)cc1/C=C/C(=O)c1c(O)cccc1OC [Chalcone 8q, (2E)-3-(5-Bromo-2-Ethoxy-Phenyl)-1-(2-Hydroxy-6-Methoxy-Phenyl)-Propenone] | 9.9 ± 1 | 2.7 ± 0.04 | 4.3 ± 0.4 | 6 ± 0.3 | – | – | – | – |
| COc1ccc(Br)cc1/C=C/C(=O)c1c(O)cccc1OCCc1ccccc1 [Chalcone 8u, (2E)-3-(5-Bromo-2-Methoxy-Phenyl)-1-[2-Hydroxy-6-Phenethyloxy]-Propenone] | 4.9 ± 0.6 | 3.4 ± 0.5 | 1.0 ± 0.1 | 4.3 ± 0.3 | – | – | – | – |
| COc1ccc(/C=C/C(=O)c2c(O)cccc2OCc2ccccc2)c(OC)c1OC [Chalcone 8y, (2E)-1-(2-Benzloxy-6-Hydroxy-Phenyl)-3-(2,3,4-Trimethoxy-Phenyl)-Propenone] | 7.7 ± 0.2 | 6.3 ± 0.2 | 7.2 ± 0.6 | 15.8 ± 1 | – | – | – | – |
